Structures are written as SMILES. Where a name gives a salt, the structure may show the parent alone.

The nature of data set [1]: Aqueous solubility determination (saturated solution, HPLC; pH of saturated solution). In kind it is physicochemical. As to conditions: for pH of the corresponding saturated solution: saturated aqueous solution after 24 h at 25°C; for solubility at 24 h: doubly distilled water, after 24 h of equilibration at 25°C. How it is done: (§1) For this measurement approximately 1.0 mL of doubly distilled water was added to 18 mg of the substance according Example 1 to be measured. The resulting suspension was equilibrated in a temperature-controlled Eppendorf Thermomixer Comfort shaker for 24 h at 25°C at a shaking rate of 600 rpm. The solid phase was recovered by filter centrifugation (0.10-µm PVDF membrane) and examined by FT-Raman spectroscopy. Concentrations in the filtrate (i.e., saturated solutions) were determined by HPLC (see below). The pH of the saturated solution was determined with a Metrohm 713 pH meter. HPLC: TSP instrument with P4000 pump, AS3000 autosampler, SCM1000 degasser, UV3000 detector, and PC1000 Vers. 4.1 software. Table 4: HPLC method used for solubility determinations.
as §1, with “8:” for “4:”

Data set [2] is described as follows: DVS / hygroscopy measurement. In kind it is physicochemical. As to conditions: for hygroscopy: DVS humidity program 50 → 95 → 0 → 50% r.h. Here is the method:
For the measurement of hygroscopy of the salt a Projekt Messtechnik Sorptions Prüfsystem SPS 11 - 100n was used. (Hygroscopy of the phenylbutyric acid for comparison was measured with the Surface Measurement Systems DVS-1 ). The salt sample was placed on an aluminium (SPS 11) holder (for phenylbutyric acid on a platinum holder (DVS-1)) on top of a microbalance and allowed to equilibrate for 2 h at 50% r.h. before starting the pre-defined humidity program: • (1)2hat50%r.h. • (2) 50 → 95% r.h. (5%/h); 5 h at 95% r.h. • (3) 95 → 0% r.h. (5%/h); 5 h at 0% r.h. • (4) 0 → 50% r.h. (5%/h); 2 h at 50% r.h.
For the measurement of hygroscopy of the salt a Projekt Messtechnik Sorptions Prüfsystem SPS 11 - 100n was used. (Hygroscopy of the phenylbutyric acid for comparison was measured with the Surface Measurement Systems DVS-1). The salt sample was placed on an aluminium (SPS 11) holder (for phenylbutyric acid on a platinum holder (DVS-1)) on top of a microbalance and allowed to equilibrate for 2 h at 50% r.h. before starting the pre-defined humidity program: • (1)2hat50%r.h. • (2) 50 → 95% r.h. (5%/h); 5 h at 95% r.h. • (3) 95 → 0% r.h. (5%/h); 5 h at 0% r.h. • (4) 0 → 50% r.h. (5%/h); 2 h at 50% r.h. […] However, raising the relative humidity further from 80 to 95% r.h. results in a steep gain of -10 wt.-%. Upon lowering the relative humidity, the mass decreases only slightly (by -2.2 w1.-%) until a relative humidity of -60 % r.h. is reached. Then a steep loss of -10 wt.-% occurs until the mass of the starting material is reached at -45% r.h. […] Upon lowering the relative humidity from 50 to 0% r.h. a mass loss of -0.3 wt.-% is observed, but it is fully reversible. At the end of the cycle the sample had essentially the same mass as the starting material. […] A sesquihydrate of the hemi-benzathine salt (1 :0.5:1.5 phenylbutyrate:benzathine:H2O) has a theoretical water content of 9.5 wt.-%. A reversible hydrate formation occurred during the DVS experiment.

Consider `O=C(O)CCCc1ccccc1` [Example 1, 4-Phenylbutyrate-Mono-Benethamine salt], for which the “pH of the corresponding saturated solution” value in data set [1] was 7.2. In data set [1] (water, solid residue Raman spectrum unchanged), this compound came in with a solubility at 24 h of 1900 µg/mL. Besides, the hygroscopy result in data set [2] was “not hygroscopic”; in data set [2] (listed as 4-Phenylbutyrate-Mono-Benethamine salt), “non-hygroscopic”.

Regarding `O=C(O)CCCc1ccccc1` [Example 2, 4-Phenylbutyrate-Hemi-Benzathine salt], the solubility at 24 h in data set [1] (value corresponds to a hydrate of the benzathine salt, not to the anhydrous form) came to 1700 µg/mL. Further, the “pH of the corresponding saturated solution” value in data set [1] (hydrate formed and precipitated during equilibration) is listed as 6.2. Further, the gradual mass gain in data set [2] (DVS, increasing the relative humidity from 50 to 80% r.h.) is -1.3 wt.-%. Moreover, the mass loss in data set [2] (DVS, lowering the relative humidity from 50 to 0% r.h., fully reversible) is reported as -0.3 wt.-%. Moreover, in data set [2] (DVS, lowering the relative humidity from 95% until -60 % r.h. is reached), the mass decrease is given as -2.2 w1.-%. Also, the “steep loss (mass)” value in data set [2] (DVS, lowering the relative humidity from -60 % r.h. until -45% r.h. (mass of starting material reached)) is reported as -10 wt.-%. Further, the “steep gain (mass)” value in data set [2] (DVS, raising the relative humidity from 80 to 95% r.h.) is given as -10 wt.-%.

As usually defined, the solubility is how much of the substance goes into solution per volume.

The values above are taken from patent EP2397458A1, “Organic salts and co-crystals of phenylbutyric acid” (Lunamed AG, priority 2010, dated 2011).
